Reference: patent publication US12344613B2, “EGFR inhibitor for the treatment of cancer” (Hoffmann-La Roche Inc., priority 2019, dated 2025)

Target: T1, EGFR TMLRCS (BaF3-TMLRCS cell line) (Homo sapiens, UniProt P00533, C797S/L858R/T790M)
T1 construct: host or cells: Ba/F3 (BaF3-TMLRCS), maintained under puromycin selection
Test: HTRF Phospho EGFR TMLRCS Assay (Cellular)
Type: cell-based
Conditions: BaF3-TMLRCS cells, 4 hours incubation
Description: HTRF Phospho EGFR TMLRCS Assay (Cellular)
BaF3-TMLRCS cell line were obtained from Crownbio (San Diego, CA, USA). Cells were maintained at 37° C., 5% CO2 in RPMI ATCC (Gibco 31870)+2 mM Glutamine+0.5 μg/ml Puromycin supplemented with 10% fetal bovine serum (FBS) (Gibco).
Cells are transferred as above to Greiner Bio-One, Nr. 784-08 micro-titerplate at 20000 cells/well in 12.5 μl of growth medium/well after the plates had been pre-filled with 12.5 nl of DMSO solutions of the to be tested compounds (in dose response) or DMSO only. After spinning the plates at 300×g for 30 seconds the cells were incubated for 4 hours at 37 C, 5% CO2, 95% humidity. The cells were lysed by adding to the compound mix 4 μl/well of the supplemented lysis buffer (Cis-bio, Phospho-EGFR HTRF kit, 64EG1PEH), followed by incubation for 30 min at room temperature with shaking (400 rpm). The plates were then frozen and stored overnight at −80 C. […] The lidded plates were then incubated for 4 h at room temperature before reading the fluorescence emission at 616 and 665 nm using an Envision reader (Perkin Elmer). Data was analyzed in similar fashion as above using the normalized ratio of the 665 to 616 signals multiplied by 10000.

T1 sequence (P00533 25-1210 T790M/C797S/L858R): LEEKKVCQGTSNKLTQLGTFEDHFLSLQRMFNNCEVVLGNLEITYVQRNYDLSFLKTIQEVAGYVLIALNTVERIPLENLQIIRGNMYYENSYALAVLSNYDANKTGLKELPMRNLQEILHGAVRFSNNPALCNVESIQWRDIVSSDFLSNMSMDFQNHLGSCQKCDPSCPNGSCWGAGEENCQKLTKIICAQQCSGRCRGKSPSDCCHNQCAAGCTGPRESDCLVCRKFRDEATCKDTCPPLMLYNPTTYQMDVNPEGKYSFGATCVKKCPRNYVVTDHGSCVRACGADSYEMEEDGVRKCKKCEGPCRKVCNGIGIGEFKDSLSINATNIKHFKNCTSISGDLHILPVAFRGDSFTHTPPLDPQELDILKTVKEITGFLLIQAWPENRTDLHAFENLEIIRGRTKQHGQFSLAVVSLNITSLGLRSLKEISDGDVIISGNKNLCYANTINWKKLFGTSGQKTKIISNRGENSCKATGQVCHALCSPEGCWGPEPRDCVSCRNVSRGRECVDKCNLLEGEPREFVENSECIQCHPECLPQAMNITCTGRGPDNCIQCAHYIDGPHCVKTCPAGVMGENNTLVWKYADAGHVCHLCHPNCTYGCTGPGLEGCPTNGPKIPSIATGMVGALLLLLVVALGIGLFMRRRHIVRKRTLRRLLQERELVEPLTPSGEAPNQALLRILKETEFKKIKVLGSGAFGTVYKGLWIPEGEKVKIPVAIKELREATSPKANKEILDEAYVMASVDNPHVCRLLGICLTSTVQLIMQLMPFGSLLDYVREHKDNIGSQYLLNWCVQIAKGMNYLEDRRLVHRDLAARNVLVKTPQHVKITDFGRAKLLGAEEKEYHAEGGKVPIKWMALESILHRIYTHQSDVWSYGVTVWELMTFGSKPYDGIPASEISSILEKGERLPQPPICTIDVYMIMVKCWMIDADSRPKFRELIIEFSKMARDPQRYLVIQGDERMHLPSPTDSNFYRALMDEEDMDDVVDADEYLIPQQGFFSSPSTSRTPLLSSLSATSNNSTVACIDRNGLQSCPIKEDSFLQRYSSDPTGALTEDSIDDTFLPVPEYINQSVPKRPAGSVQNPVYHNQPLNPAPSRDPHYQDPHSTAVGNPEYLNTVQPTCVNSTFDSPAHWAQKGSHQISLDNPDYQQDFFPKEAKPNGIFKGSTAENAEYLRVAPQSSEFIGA

**Q.** Which IC50 does the source give for `O=C(Nc1nccs1)C(c1ncn2c1C[C@@H](F)C2)n1cc2c(Cl)cc(-c3ccc(N4CCOCC4)cc3)c(Cl)c2n1` (stereo partly drawn) [Example 1, 2-[4,7-Dichloro-6-(4-morpholinophenyl)indazol-2-yl]-2-[(6R)-6-fluoro-6,7-dihydro-5H-pyrrolo[1,2-c]imidazol-1-yl]-N-thiazol-2-yl-acetamide] here?
**A.** The IC50 was 5 nM.
